In data set [1] the test system is HT22 cells (mouse hippocampal neuron). The data set is described as follows: Cell cytotoxicity test: protection of HT22 cells against glutamate toxicity (EC50) and cytotoxicity of the compounds (CC50), MTT. Particulars: Mus musculus, HT-22, five millimolar glutamate, 24 hrs, read-out: EC50 (neuroprotective effect against glutamate toxicity). It counts as cell-based. On the procedure: (§1) HT22 cells (mouse hippocampal neuron, Salk Institute and KRIBB) were plated in a 96-well plate at a density of 3×10^3 cells/well for 16 hrs before treatment. The cells were treated with five millimolar glutamate and various concentrations of the inventive compounds and incubated for 24 hrs in a growth media (DMEM with 10% FBS and 1% penicillin streptomycin). Then, the cells were treated with 3-(4,5-dimethylthiazol-2-yl)-2,5-diphenyltetrazolium bromide (MTT, Sigma®) for 4 hrs and absorbance of each well was measured with a plate reader at a wavelength of 450 nm. [Da-Qing, et. al., Anti-oxidant and anti-inflammatory activities of macelignan in murine hippocampal cell line and primary culture of rat microglia cells, BBRC, 2005, 331, 1264-1269].
(§2) In Table 1, EC50 is neuroprotective effect against glutamate toxicity and CC50 is cytotoxicity of the compounds. The EC50 values were statistically analyzed using Prizm® (GraphPad Software Inc., San Diego, Calif., USA).

Experiment in data set [2]: as above
The data set is classed as cell-based, mouse. Particulars: mouse, HT22 cells (mouse hippocampal neuron). On the procedure:
as §1, §2

Structures can show the parent of a compound that is named as a salt.

As to `Oc1cc2c(cc1Nc1ccccc1F)C[C@@H]1NCC[C@]23CCCC[C@H]13` [Example 38, (+)-2-(2-Fluorophenylamino)-3-hydroxymorphinan TFA salt], in data set [1], the EC50 – broadly, the concentration that produces a half-maximal response – came out at 211 nM. In addition, the CC50 (commonly the concentration at which the toxic effect on the cells reaches its halfway point) at 24 h in data set [2] was found to be 11.8 µM.

Turning to `Oc1cc2c(cc1Nc1cccc(F)c1)C[C@@H]1NCC[C@]23CCCC[C@H]13` [Example 39, (+)-2-(3-Fluorophenylamino)-3-hydroxymorphinan TFA salt], the EC50 in data set [1] turned out to be 145 nM. In data set [2], this molecule showed a 50% cytotoxic concentration (CC50) at 24 h of 13.8 µM.

For the molecule `COc1ccc(Nc2cc3c(cc2O)[C@]24CCCC[C@@H]2[C@H](C3)NCC4)c(OC)c1` [Example 40, (+)-2-(2,4-Dimethoxyphenylamino)-3-hydroxymorphinan TFA salt], the EC50 in data set [1] worked out at 33 nM. Further, the CC50 at 24 h in data set [2] amounted to 7.2 µM.

Consider `Cc1ccccc1Nc1cc2c(cc1O)[C@]13CCCC[C@@H]1[C@H](C2)NCC3` [Example 41, (+)-3-Hydroxy-2-(2-methylphenylamino)morphinan TFA salt], for which the EC50 in data set [1] worked out at 17.8 nM. In data set [2], this molecule displayed a CC50 at 24 h of 6.9 µM.

Turning to `COc1ccccc1Nc1cc2c(cc1O)[C@]13CCCC[C@@H]1[C@H](C2)NCC3` [Example 42, (+)-3-Hydroxy-2-(2-methoxyphenylamino)morphinan TFA salt], the EC50 in data set [1] was 95.9 nM. Further, it took 11.4 µM to reach half-maximal cytotoxicity in data set [2] (CC50 at 24 h).

On to `Oc1ccccc1Nc1cc2c(cc1O)[C@]13CCCC[C@@H]1[C@H](C2)NCC3` [Example 43, (+)-3-Hydroxy-2-(2-hydroxyphenylamino)morphinan TFA salt], for which, in data set [1], the EC50 was determined as 2.71 nM. The CC50 at 24 h in data set [2] amounted to 10.4 µM.

In the case of `Oc1cccc(Nc2cc3c(cc2O)[C@]24CCCC[C@@H]2[C@H](C3)NCC4)c1` [Example 44, (+)-3-Hydroxy-2-(3-hydroxyphenylamino)morphinan TFA salt], the EC50 in data set [1] is 802 nM. The same molecule displayed a CC50 at 24 h in data set [2] of 75 µM.

In the case of `Oc1ccc(Nc2cc3c(cc2O)[C@]24CCCC[C@@H]2[C@H](C3)NCC4)c(O)c1` [Example 45, (+)-2-(2,4-Dihydroxyphenylamino)-3-hydroxymorphinan TFA salt], the concentration giving a half-maximal response (EC50) in data set [1] amounted to 73.1 nM. The same molecule gave a CC50 at 24 h in data set [2] of 40.9 µM.

On to `Oc1cc2c(cc1Nc1c(O)cccc1O)C[C@@H]1NCC[C@]23CCCC[C@H]13` [Example 47, (+)-2-(2,6-Dihydroxyphenylamino)-3-hydroxymorphinan TFA salt], for which the half-maximal effective concentration (EC50) in data set [1] is 275 nM. Further, it took 9 µM to reach half-maximal cytotoxicity in data set [2] (CC50 at 24 h).

For the molecule `Oc1cc2c(cc1Nc1ccccc1Cl)C[C@@H]1NCC[C@]23CCCC[C@H]13` [Example 48, (+)-2-(2-Chlorophenylamino)-3-hydroxymorphinan TFA salt], the EC50 in data set [1] amounted to 99.1 nM. The 50% cytotoxic concentration (CC50) at 24 h in data set [2] was 2.7 µM.

With `CCc1ccccc1Nc1cc2c(cc1O)[C@]13CCCC[C@@H]1[C@H](C2)NCC3` [Example 49, (+)-2-(2-Ethylphenylamino)-3-hydroxymorphinan TFA salt], the 50% effective concentration (EC50) in data set [1] stood at 32.8 nM. In data set [2], this molecule came in with a CC50 at 24 h of 1.1 µM.

Regarding `CC(C)c1ccccc1Nc1cc2c(cc1O)[C@]13CCCC[C@@H]1[C@H](C2)NCC3` [Example 50, (+)-3-Hydroxy-2-(2-isopropylphenylamino)morphinan TFA salt], in data set [1], the 50% effective concentration (EC50) was found to be 43 nM. In data set [2], this molecule registered a half-maximal cytotoxic concentration (CC50) at 24 h of 1 µM.

For `CC(C)(C)c1ccccc1Nc1cc2c(cc1O)[C@]13CCCC[C@@H]1[C@H](C2)NCC3` [Example 51, (+)-2-(2-t-Butylphenylamino)-3-hydroxymorphinan TFA salt], the EC50 in data set [1] came to 36 nM. For the same molecule, in data set [2], the midpoint of cytotoxicity, the CC50 at 24 h, lay at 1.4 µM.

For the molecule `Oc1cc2c(cc1Nc1ccccc1C(F)(F)F)C[C@@H]1NCC[C@]23CCCC[C@H]13` [Example 52, (+)-3-Hydroxy-2-(2-(trifluoromethyl)phenylamino)morphinan TFA salt], the concentration giving a half-maximal response (EC50) in data set [1] came to 24.9 nM. The same molecule showed a cytotoxic concentration (CC50) at 24 h in data set [2] of 1.5 µM.

On to `CCc1ccc(Nc2cc3c(cc2O)[C@]24CCCC[C@@H]2[C@H](C3)NCC4)cc1` [Example 53, (+)-2-(4-Ethylphenylamino)-3-hydroxymorphinan TFA salt], for which, in data set [1], the half-maximal effective concentration (EC50) is 40.2 nM. In data set [2], this molecule showed a CC50 at 24 h of 1.6 µM.

In the case of `CC(C)c1ccc(Nc2cc3c(cc2O)[C@]24CCCC[C@@H]2[C@H](C3)NCC4)cc1` [Example 54, (+)-3-Hydroxy-2-(4-isopropylphenylamino)morphinan TFA salt], in data set [1], the EC50 came to 59.8 nM. In addition, the CC50 at 24 h in data set [2] turned out to be 1.5 µM.

For `Oc1cc2c(cc1Nc1cccc(Cl)c1O)C[C@@H]1NCC[C@]23CCCC[C@H]13` [Example 55, (+)-2-(3-Chloro-2-hydroxyphenylamino)-3-hydroxymorphinan TFA salt], the EC50 in data set [1] is 101 nM. For the same molecule, half-maximal cytotoxicity in data set [2] (CC50 at 24 h) was put at 9.2 µM.

With `Oc1ccc(F)cc1Nc1cc2c(cc1O)[C@]13CCCC[C@@H]1[C@H](C2)NCC3` [Example 56, (+)-2-(5-Fluoro-2-hydroxyphenylamino)-3-hydroxymorphinan TFA salt], in data set [1], the concentration giving a half-maximal response (EC50) was found to be 354 nM. The molecule also returned a CC50 at 24 h in data set [2] of 12.6 µM.

For `Oc1cc2c(cc1Nc1cccc(F)c1O)C[C@@H]1NCC[C@]23CCCC[C@H]13` [Example 57, (+)-2-(3-Fluoro-2-hydroxyphenylamino)-3-hydroxymorphinan TFA salt], the concentration giving a half-maximal response (EC50) in data set [1] amounted to 199 nM. In data set [2], this molecule had a CC50 at 24 h of 5.5 µM.

For `Oc1cc2c(cc1Nc1ccc(OC(F)(F)F)cc1)C[C@@H]1NCC[C@]23CCCC[C@H]13` [Example 58, (+)-3-Hydroxy-2-(4-(trifluoromethoxy)phenylamino)morphinan TFA salt], the EC50 in data set [1] came to 131 nM. The molecule further displayed a CC50 at 24 h in data set [2] of 1.4 µM.

As to `Oc1cc2c(cc1Nc1ccccc1OC(F)(F)F)C[C@@H]1NCC[C@]23CCCC[C@H]13` [Example 59, (+)-3-Hydroxy-2-(2-(trifluoromethoxy)phenylamino)morphinan TFA salt], the EC50 in data set [1] came out at 69.3 nM. Further, the CC50 at 24 h in data set [2] amounted to 1.7 µM.

As to `Oc1cc2c(cc1Nc1ccccc1-c1ccccc1)C[C@@H]1NCC[C@]23CCCC[C@H]13` [Example 60, (+)-2-(Biphenyl-2-ylamino)-3-hydroxymorphinan TFA salt], the EC50 in data set [1] is 19 nM. In addition, the CC50 at 24 h in data set [2] is 1.4 µM.

Take `NC(=O)c1ccccc1Nc1cc2c(cc1O)[C@]13CCCC[C@@H]1[C@H](C2)NCC3` [Example 61, (+)-2-(2-Carbamoylphenylamino)-3-hydroxymorphinan TFA salt]: the concentration giving a half-maximal response (EC50) in data set [1] came to 1790 nM. Also, the cytotoxic concentration (CC50) at 24 h in data set [2] turned out to be 50 µM.

For the molecule `Oc1cc2c(cc1Nc1ccccc1Cc1ccccc1)C[C@@H]1NCC[C@]23CCCC[C@H]13` [Example 62, (+)-2-(2-Benzylphenylamino)-3-hydroxymorphinan TFA salt], the 50% effective concentration (EC50) in data set [1] amounted to 52.4 nM. Besides, in data set [2], the midpoint of cytotoxicity, the CC50 at 24 h, lay at 1.6 µM.

Take `COc1ccc(Nc2cc3c(cc2O)[C@]24CCCC[C@@H]2[C@H](C3)NCC4)cc1OC` [Example 63, (+)-2-(3,4-Dimethoxyphenylamino)-3-hydroxymorphinan TFA salt]: the EC50 in data set [1] is 28.9 nM. The same molecule showed a CC50 at 24 h in data set [2] of 10.1 µM.

Take `Oc1cc2c(cc1Nc1cc(Cl)ccc1Cl)C[C@@H]1NCC[C@]23CCCC[C@H]13` [Example 64, (+)-2-(2,5-Dichlorophenylamino)-3-hydroxymorphinan TFA salt]: the EC50 in data set [1] is 464 nM. Further, the cytotoxic concentration (CC50) at 24 h in data set [2] stood at 1.9 µM.

Take `Oc1cc2c(cc1Nc1ccc(Cl)c(Cl)c1)C[C@@H]1NCC[C@]23CCCC[C@H]13` [Example 65, (+)-2-(3,4-Dichlorophenylamino)-3-hydroxymorphinan TFA salt]: the concentration for a half-maximal effect (EC50) in data set [1] came out at 314 nM. Also, the 50% cytotoxic concentration (CC50) at 24 h in data set [2] came out at 1.6 µM.

As for `Oc1cc2c(cc1Nc1cccc3cccnc13)C[C@@H]1NCC[C@]23CCCC[C@H]13` [Example 66, TFA salt], in data set [1], the EC50 came out at 21.3 nM. Further, the midpoint of cytotoxicity in data set [2], the CC50 at 24 h, lay at 2.9 µM.

In the case of `Oc1cc2c(cc1Nc1cccc3cnccc13)C[C@@H]1NCC[C@]23CCCC[C@H]13` [Example 67, TFA salt], in data set [1], the EC50 was 107 nM. The same molecule yielded a cytotoxic concentration (CC50) at 24 h in data set [2] of 12.5 µM.

In the case of `Oc1cc2c(cc1Nc1ccc3ncccc3c1)C[C@@H]1NCC[C@]23CCCC[C@H]13` [Example 68, TFA salt], in data set [1], the EC50 came to 1720 nM. The molecule also displayed a CC50 at 24 h in data set [2] of 8.5 µM.

As for `Oc1cc2c(cc1Nc1ccc3[nH]ncc3c1)C[C@@H]1NCC[C@]23CCCC[C@H]13` [Example 69, (+)-3-Hydroxy-2-((1H-indazol-5-yl)amino)morphinan TFA salt], the EC50 in data set [1] was 1020 nM. For the same molecule, in data set [2], the 50% cytotoxic concentration (CC50) at 24 h stood at 48 µM.

For the molecule `Oc1cc2c(cc1Nc1ccc3c(c1)CCCC3)C[C@@H]1NCC[C@]23CCCC[C@H]13` [Example 71, (+)-3-Hydroxy-24(5,6,7,8-tetrahydronaphthalen-2-ybamino)morphinan TFA salt], the 50% effective concentration (EC50) in data set [1] came out at 36.2 nM. Moreover, the CC50 at 24 h in data set [2] turned out to be 1.6 µM.

In the case of `CSc1cc2c(cc1O)[C@]13CCCC[C@@H]1[C@H](C2)NCC3` [Example 72, (+)-3-Hydroxy-2-methylthiomorphinan TFA salt], in data set [1], the concentration for a half-maximal effect (EC50) amounted to 2210 nM. Besides, the midpoint of cytotoxicity in data set [2], the CC50 at 24 h, lay at 77.3 µM.

`Oc1cc2c(cc1Sc1ccccc1)C[C@@H]1NCC[C@]23CCCC[C@H]13` [Example 73, (+)-3-Hydroxy-2-phenylthiomorphinan TFA salt]: the EC50 in data set [1] came to 1670 nM. Also, the 50% cytotoxic concentration (CC50) at 24 h in data set [2] is 5.57 µM.

For the molecule `Cc1ccc(-c2cc3c(cc2O)[C@]24CCCC[C@@H]2[C@H](C3)NCC4)cc1` [Example 75, (+)-3-Hydroxy-2-(4-methylphenyl)morphinan TFA salt], in data set [1], the EC50 is 1660 nM. The molecule also gave a half-maximal cytotoxic concentration (CC50) at 24 h in data set [2] of 9.4 µM.

Source of the values: patent publication US20120122848A1, “(+)-3-HYDROXYMORPHINAN DERIVATIVES AS NEUROPROTECTANTS” (GREEN CROSS CORPORATION, priority 2009, published 2012).
